# Source: paper PMC6895180 (Nature Communications, 2019)
# Where two headings read alike, the source gives them in different places.
# Experiments:
# [1] = test system: T. b. rhodesiense STIB-900; test: microbe, parasite or virus in culture; format: cell-based, Trypanosoma brucei rhodesiense; conditions: for SI (MRC/T.b. rhodesiense): selectivity index
# [2] = Cytotoxicity on MRC-5 fibroblasts (resazurin); format: cell-based, human; conditions: human
# Procedure, shortened: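 MRC-5SV2 cells (3 × 10^4 cells mL^−1) in MEM with 5% foetal calf serum exposed to compounds for 3 days at 37 °C, 5% CO2. Viability read by resazurin fluorescence (10 µg mL^−1 final, 4 h; λex 550/λem 590 nm) against untreated and medium controls; EC50 derived.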
# T. b. brucei Squib 427 = test: Mouse model of acute HAT
# Protocol: Drinking water and food were available ad libitum throughout the experiment. […] The reference drug suramin was formulated in phospahte-buffered saline (PBS) at 2.5 mg mL^−1 and administered s.i.d. i.p. for 5 days at 10 mg kg^−1 (n = 3). All treatments were initiated 30 min prior to the i.p. infection. […] Parasitaemia was determined by microscopic evaluation of tail vein blood samples at 4, 7, 10, 14 and 21 dpi (pre-set endpoint). As a test of cure, blood samples (250 µL) were collected from treated mice at 21 dpi and were sub-inoculated i.p. in naive Swiss mice (n = 3), followed by monitoring of parasitaemia as follow-up.
# [3] = target: Lister 427WT T. b. brucei; test: Adenosine deaminase susceptibility (drug sensitivity with/without 2 µM deoxycoformycin); format: cell-based, Trypanosoma brucei brucei; conditions: for EC50: Trypanosoma brucei, Lister 427WT, mean ± SEM, n=3
# [4] = Trypanosoma brucei, RHODESIENSE, Alamar blue cell viability assay, mean and SEM, read-out: T. b. rhodesiense EC50
# [5] = Trypanosoma brucei, RHODESIENSE, source data, read-out: T. brucei rhodesiense EC50, Average
# [6] = Trypanosoma brucei, RHODESIENSE, source data, read-out: T. brucei rhodesiense EC50, single measurements
# [7] = source data, read-out: T. brucei rhodesiense EC50, single measurements
# [8] = MRC-5SV2 human embryonic lung fibroblasts, cytotoxicity in human MRC-5 fibroblasts, mean and SEM, read-out: MRC-5 EC50
# [9] = absence of deoxycoformycin, read-out: T. b. brucei EC50, -Dcf
# [10] = presence of 2 µM deoxycoformycin, read-out: T. b. brucei EC50, +Dcf
smiles,measurement,setting,value
"Nc1ncnc2c1ccn2[C@@H]1O[C@H](CO)C[C@H]1O [Compound 9, 3’-deoxytubercidin]",EC50,[1]; [4],0.52 ± 0.04 nM
same,EC50,[1]; [5],0.521 nM
same,EC50,[1]; [6],0.484 nM
same,SI (MRC/T.b. rhodesiense),[1],">123,077"
same,EC50,[1]; [7],0.557 nM
same,EC50 at 3 day,[2]; [8],> 64000 nM
same,EC50 at 3 day,"[2]; MRC-5SV2 human embryonic lung fibroblasts, source data, read-out: MRC-5 EC50, single measurements",> 64000 nM
same,"parasitaemia, individual mice","T. b. brucei Squib 427; 6.25 mg/kg bid PO, 4 dpi",0
same,"parasitaemia, individual mice","T. b. brucei Squib 427; 6.25 mg/kg bid PO, 7 dpi",0
same,"parasitaemia, individual mice","T. b. brucei Squib 427; 6.25 mg/kg bid PO, 10 dpi",0
same,"parasitaemia, individual mice","T. b. brucei Squib 427; 6.25 mg/kg bid PO, 14 dpi",0
same,"parasitaemia, individual mice","T. b. brucei Squib 427; 6.25 mg/kg bid PO, 21 dpi",0
same,"parasitaemia, individual mice","T. b. brucei Squib 427; 12.5 mg/kg bid PO, 4 dpi",0
same,"parasitaemia, individual mice","T. b. brucei Squib 427; 12.5 mg/kg bid PO, 7 dpi",0
same,"parasitaemia, individual mice","T. b. brucei Squib 427; 12.5 mg/kg bid PO, 10 dpi",0
same,"parasitaemia, individual mice","T. b. brucei Squib 427; 12.5 mg/kg bid PO, 14 dpi",0
same,"parasitaemia, individual mice","T. b. brucei Squib 427; 12.5 mg/kg bid PO, 21 dpi",0
same,"parasitaemia, individual mice","T. b. brucei Squib 427; 25 mg/kg bid PO, 4 dpi",0
same,"parasitaemia, individual mice","T. b. brucei Squib 427; 25 mg/kg bid PO, 7 dpi",0
same,"parasitaemia, individual mice","T. b. brucei Squib 427; 25 mg/kg bid PO, 10 dpi",0
same,"parasitaemia, individual mice","T. b. brucei Squib 427; 25 mg/kg bid PO, 14 dpi",0
same,"parasitaemia, individual mice","T. b. brucei Squib 427; 25 mg/kg bid PO, 21 dpi",0
same,tolerability in mice,"T. b. brucei Squib 427; all treatment schedules, no adverse reactions, no weight loss",well tolerated
same,test of cure: blood of surviving animals at 21 dpi inoculated in treatment-naïve mice,T. b. brucei Squib 427; follow-up of parasitaemia,absence of parasitaemia
same,blood parasitaemia and survival at 21 dpi,T. b. brucei Squib 427; i.p. 10 mg kg^−1 s.i.d. for 5 days,negative blood parasitaemia and survival of all treated mice
same,blood parasitaemia and survival at 21 dpi,T. b. brucei Squib 427; oral 6.25 mg kg^−1 b.i.d. for 5 days,negative blood parasitaemia and survival of all treated mice
same,blood parasitaemia and survival at 21 dpi,T. b. brucei Squib 427; oral 12.5 mg kg^−1 b.i.d. for 5 days,negative blood parasitaemia and survival of all treated mice
same,blood parasitaemia and survival at 21 dpi,T. b. brucei Squib 427; oral 25 mg kg^−1 b.i.d. for 5 days,negative blood parasitaemia and survival of all treated mice
same,effect of adenosine deaminase inhibition (2’-deoxycoformycin) on EC50,[3],not significantly affected
same,EC50,[3]; [9],37 ± 3 nM
same,EC50,[3]; [10],49 ± 9 nM
"Nc1ncnc2c1c(Br)cn2[C@@H]1O[C@H](CO)[C@@H](O)[C@H]1O [Compound 8, 7-bromotubercidin]",EC50,[1]; [4],120 ± 20 nM
same,EC50,[1]; [5],120 nM
same,EC50,[1]; [6],106 nM
same,SI (MRC/T.b. rhodesiense),[1],107
same,EC50,[1]; [7],136 nM
same,EC50 at 3 day,"[2]; MRC-5 EC50, Average",12800 nM
same,EC50 at 3 day,"[2]; MRC-5 EC50, single measurements",8180 nM
"Nc1ncnc2c1c(Br)cn2[C@@H]1O[C@H](CO)C[C@H]1O [Compound 10, 3’-deoxy-7-Br-tubercidin]",EC50,[1]; [4],0.4 ± 0.09 nM
same,EC50,[1]; [5],0.398 nM
same,SI (MRC/T.b. rhodesiense),[1],"37,500"
same,EC50,[1]; [7],0.5 nM
same,EC50 at 3 day,[2]; [8],15000 ± 3000 nM
same,tolerability in mice,T. b. brucei Squib 427; 6.25 mg kg^−1 orally,not well tolerated
same,effect of adenosine deaminase inhibition (2’-deoxycoformycin) on EC50,[3],not significantly affected
same,EC50,[3]; [9],2 ± 0.1 nM
same,EC50,[3]; [10],1.9 ± 0.2 nM
